Experimental data taken from patent US9187464B2, “TRPV4 antagonists” (GlaxoSmithKline Intellectual Property (No. 2) Limited, priority 2011, dated 2015).

Biological target: T1, human TRPV4 (Homo sapiens, UniProt Q9HBA0)
T1 construct: expressed in transfected cells; host or cells: HEK-293-MSR-II cells transduced with 1% BacMam virus
Test: Ligand-gated assay (Fluo4 calcium, FLIPR; inhibition of agonist-induced activation)
Assay type: cell-based
Conditions: HEK-293-MSR-II cells transduced with BacMam human TRPV4; agonist at EC80
Summary of the method: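 HEK-293-MSR-II cells BacMam-transduced with human TRPV4, loaded with 2 uM Fluo-4. Compound preincubated 10 min at room temperature in HBSS pH 7.4 plus 0.01% Chaps, then agonist added at its EC80. Inhibition of agonist-evoked calcium rise read on FLIPR; IC50 reported.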

T1 sequence (Q9HBA0 whole entry): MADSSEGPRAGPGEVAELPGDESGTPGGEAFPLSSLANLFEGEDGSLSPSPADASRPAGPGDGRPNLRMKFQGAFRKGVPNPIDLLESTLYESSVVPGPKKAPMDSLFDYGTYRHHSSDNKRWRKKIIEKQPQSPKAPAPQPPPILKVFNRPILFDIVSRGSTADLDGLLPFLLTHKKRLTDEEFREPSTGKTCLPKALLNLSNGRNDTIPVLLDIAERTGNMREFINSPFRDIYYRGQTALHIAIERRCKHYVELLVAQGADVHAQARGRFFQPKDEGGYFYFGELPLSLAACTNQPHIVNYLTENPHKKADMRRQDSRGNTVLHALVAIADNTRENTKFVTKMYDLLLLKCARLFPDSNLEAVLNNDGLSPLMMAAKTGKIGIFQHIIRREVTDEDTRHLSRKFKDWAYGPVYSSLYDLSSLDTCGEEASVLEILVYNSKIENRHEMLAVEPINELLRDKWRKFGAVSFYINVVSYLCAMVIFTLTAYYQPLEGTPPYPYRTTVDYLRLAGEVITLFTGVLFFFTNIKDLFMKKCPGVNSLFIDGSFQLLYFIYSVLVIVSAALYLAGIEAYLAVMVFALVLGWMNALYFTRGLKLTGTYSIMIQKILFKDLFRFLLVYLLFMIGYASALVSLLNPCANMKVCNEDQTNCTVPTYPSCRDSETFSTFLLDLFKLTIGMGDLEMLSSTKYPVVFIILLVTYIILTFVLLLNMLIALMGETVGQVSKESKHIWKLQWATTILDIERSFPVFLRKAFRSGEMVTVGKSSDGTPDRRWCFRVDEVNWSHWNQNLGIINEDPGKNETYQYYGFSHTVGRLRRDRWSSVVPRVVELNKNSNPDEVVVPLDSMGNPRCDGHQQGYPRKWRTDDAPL

| SMILES | IC50 [nM] |
| --- | --- |
| CC(C)(OCCOP(C)(C)=O)c1cnc(N2C[C@@]3(CCC[C@](C)(Cn4cnc5ccc(C#N)cc54)C3)OC2=O)cn1 [Example 164, 2-((2-(5-((5S,7S)-7-((6-cyano-1H-benzo[d]imidazol-1-yl)methyl)-7-methyl-2-oxo-1-oxa-3-azaspiro[4.5]decan-3-yl)pyrazin-2-yl)propan-2-yl)oxy)ethyl dimethylphosphinate] | 10 to 50 |
| Cc1cc(-c2ccc(F)cn2)ncc1N1C[C@@]2(CCC[C@](C)(Cn3cnc4ccc(C#N)cc43)C2)OC1=O [Example 165, 1-(((5S,7S)-3-(5′-fluoro-4-methyl-[2,2′-bipyridin]-5-yl)-7-methyl-2-oxo-1-oxa-3-azaspiro[4.5]decan-7-yl)methyl)-1H-benzo[d]imidazole-6-carbonitrile] | 0.1 to 10 |
| Cc1cc(N2CCOCC2)ncc1N1C[C@@]2(CCC[C@](C)(Cn3cnc4ccc(C#N)cc43)C2)OC1=O [Example 166, 1-(((5S,7S)-7-methyl-3-(4-methyl-6-morpholinopyridin-3-yl)-2-oxo-1-oxa-3-azaspiro[4.5]decan-7-yl)methyl)-1H-benzo[d]imidazole-6-carbonitrile] | 0.1 to 10 |
| CC(C)(O)c1ccc(N2C[C@@]3(CCC[C@](C)(Cn4cnc5ccc(C#N)cc54)C3)OC2=O)nc1 [Example 167, 1-(((5S,7S)-3-(5-(2-hydroxypropan-2-yl)pyridin-2-yl)-7-methyl-2-oxo-1-oxa-3-azaspiro[4.5]decan-7-yl)methyl)-1H-benzo[d]imidazole-6-carbonitrile] | 0.1 to 10 |
| CC(C)(CO)c1cnc(N2C[C@@]3(CCC[C@](C)(Cn4cnc5ccc(C#N)cc54)C3)OC2=O)cn1 [Example 168, 1-(((5S,7S)-3-(5-(1-hydroxy-2-methylpropan-2-yl)pyrazin-2-yl)-7-methyl-2-oxo-1-oxa-3-azaspiro[4.5]decan-7-yl)methyl)-1H-benzo[d]imidazole-6-carbonitrile] | 10 to 50 |

The next lines start with the values.

| IC50 [nM] | SMILES |
| --- | --- |
| 0.1 to 10 | Cn1cc(-c2cccc(CN3C[C@@]4(CCC[C@](C)(Cn5cnc6ccc(C#N)cc65)C4)OC3=O)n2)cn1 [Example 161, 1-(((5S,7S)-7-methyl-3-((6-(1-methyl-1H-pyrazol-4-yl)pyridin-2-yl)methyl)-2-oxo-1-oxa-3-azaspiro[4.5]decan-7-yl)methyl)-1H-benzo[d]imidazole-6-carbonitrile] |
| 0.1 to 10 | COC(C)(C)c1cnc(N2C[C@@]3(CCC[C@](C)(Cn4cnc5ccc(C#N)cc54)C3)OC2=O)cn1 [Example 162, 1-(((5S,7S)-3-(5-(2-methoxypropan-2-yl)pyrazin-2-yl)-7-methyl-2-oxo-1-oxa-3-azaspiro[4.5]decan-7-yl)methyl)-1H-benzo[d]imidazole-6-carbonitrile] |
| 0.1 to 10 | COCCOC(C)(C)c1cnc(N2C[C@@]3(CCC[C@](C)(Cn4cnc5ccc(C#N)cc54)C3)OC2=O)cn1 [Example 163, 1-(((5S,7S)-3-(5-(2-(2-methoxyethoxy)propan-2-yl)pyrazin-2-yl)-7-methyl-2-oxo-1-oxa-3-azaspiro[4.5]decan-7-yl)methyl)-1H-benzo[d]imidazole-6-carbonitrile] |
